Tested on: 494315-158-R-J1-PDC complex spheroid growth, percent test/control
Test: Anticancer human tumor 494315-158-R-J1-PDC patient-derived soft tissue sarcoma cell line growth inhibition [Asc]
Details: for IC50: curve of first compound; for viability, T/C: stronger effect = lower value
Outline: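 Concentration series start at each agent's clinical Cmax, or at 10 microM when none is established, and drop in half-log steps; agents are applied alone or together to complex spheroids built with HUVEC and hMSC.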

[1] = second compound 0.1 µM, first compound 0.0316 µM
[2] = second compound 0.1 µM, first compound 0.1 µM
[3] = second compound 0.1 µM, first compound 0.316 µM
[4] = second compound 0.1 µM, first compound 1 µM
[5] = second compound 0.316 µM, first compound 0.0316 µM
[6] = second compound 0.316 µM, first compound 0.1 µM
[7] = second compound 0.316 µM, first compound 0.316 µM
[8] = second compound 0.316 µM, first compound 1 µM
[9] = second compound 1 µM, first compound 0.0316 µM
[10] = second compound 1 µM, first compound 0.1 µM
[11] = second compound 1 µM, first compound 0.316 µM
[12] = second compound 1 µM, first compound 1 µM
[13] = second compound 3.16 µM, first compound 0.0316 µM
[14] = second compound 3.16 µM, first compound 0.1 µM
[15] = second compound 3.16 µM, first compound 0.316 µM
[16] = second compound 3.16 µM, first compound 1 µM
[17] = second compound 10 µM, first compound 0.0316 µM
[18] = second compound 10 µM, first compound 0.1 µM
[19] = second compound 10 µM, first compound 0.316 µM
[20] = second compound 10 µM, first compound 1 µM
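Further: compound exposure lasted seven days after spheroids formed for three days.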

Structure (SMILES): C=CC(=O)N1CCN(c2nc(=O)n(-c3c(C)ccnc3C(C)C)c3nc(-c4c(O)cccc4F)c(F)cc23)C(C)C1 (stereo not given) + Cc1c(S(C)(=O)=O)c(-c2cc(F)cc(N3CCN(c4ccc(NS(=O)(=O)c5ccc(NC(CCN6CCC(C(=O)OCCCP(=O)(O)O)CC6)CSc6ccccc6)c(S(=O)(=O)C(F)(F)F)c5)cc4)CC3)c2)c(-c2ccc(Cl)cc2)n1C(C)C
- IC50 (second compound 0.1 µM): > 10000 nM
- IC50 (second compound 0.316 µM): > 10000 nM
- IC50 (second compound 1 µM): > 10000 nM
- IC50 (second compound 3.16 µM): > 10000 nM
- IC50 (second compound 10 µM): > 10000 nM
- viability, T/C [1]: 101%
- viability, T/C [2]: 84.5%
- viability, T/C [3]: 88.9%
- viability, T/C [4]: 100%
- viability, T/C (second compound 0.1 µM, first compound 3.16 µM): 108%
- viability, T/C (second compound 0.1 µM, first compound 10 µM): 91.7%
- viability, T/C [5]: 67.4%
- viability, T/C [6]: 75.3%
- viability, T/C [7]: 72.2%
- viability, T/C [8]: 89.9%
- viability, T/C (second compound 0.316 µM, first compound 3.16 µM): 80%
- viability, T/C (second compound 0.316 µM, first compound 10 µM): 78.3%
- viability, T/C [9]: 86.4%
- viability, T/C [10]: 63.5%
- viability, T/C [11]: 74.1%
- viability, T/C [12]: 79.3%
- viability, T/C (second compound 1 µM, first compound 3.16 µM): 84%
- viability, T/C (second compound 1 µM, first compound 10 µM): 66%
- viability, T/C [13]: 61.1%
- viability, T/C [14]: 60.2%
- viability, T/C [15]: 69.5%
- viability, T/C [16]: 79.9%
- viability, T/C (second compound 3.16 µM, first compound 3.16 µM): 81.4%
- viability, T/C (second compound 3.16 µM, first compound 10 µM): 60.9%
- viability, T/C [17]: 81.3%
- viability, T/C [18]: 84.5%
- viability, T/C [19]: 92.8%
- viability, T/C [20]: 90.1%
- viability, T/C (second compound 10 µM, first compound 3.16 µM): 98.5%
- viability, T/C (second compound 10 µM, first compound 10 µM): 67.3%

Structure (SMILES): COc1c(OCCCN2CCOCC2)ccc2c3n(c(=NC(=O)c4cnc(N)nc4)nc12)CCN3 + Cc1c(S(C)(=O)=O)c(-c2cc(F)cc(N3CCN(c4ccc(NS(=O)(=O)c5ccc(NC(CCN6CCC(C(=O)OCCCP(=O)(O)O)CC6)CSc6ccccc6)c(S(=O)(=O)C(F)(F)F)c5)cc4)CC3)c2)c(-c2ccc(Cl)cc2)n1C(C)C
- IC50 (second compound 0.1 µM): 37.8 nM
- IC50 (second compound 0.316 µM): 14.7 nM
- IC50 (second compound 1 µM): 16.5 nM
- IC50 (second compound 3.16 µM): 3.18 nM
- IC50 (second compound 10 µM): 9.27 nM
- viability, T/C (second compound 0.1 µM, first compound 0.00316 µM): 69.7%
- viability, T/C (second compound 0.1 µM, first compound 0.01 µM): 60.7%
- viability, T/C [1]: 55.6%
- viability, T/C [2]: 29.8%
- viability, T/C [3]: 18%
- viability, T/C [4]: 12.9%
- viability, T/C (second compound 0.316 µM, first compound 0.00316 µM): 67.6%
- viability, T/C (second compound 0.316 µM, first compound 0.01 µM): 56.1%
- viability, T/C [5]: 37.6%
- viability, T/C [6]: 32.1%
- viability, T/C [7]: 15.8%
- viability, T/C [8]: 11.1%
- viability, T/C (second compound 1 µM, first compound 0.00316 µM): 68.3%
- viability, T/C (second compound 1 µM, first compound 0.01 µM): 58%
- viability, T/C [9]: 39.5%
- viability, T/C [10]: 26.6%
- viability, T/C [11]: 14%
- viability, T/C [12]: 10.7%
- viability, T/C (second compound 3.16 µM, first compound 0.00316 µM): 49.7%
- viability, T/C (second compound 3.16 µM, first compound 0.01 µM): 45%
- viability, T/C [13]: 32.7%
- viability, T/C [14]: 21.4%
- viability, T/C [15]: 12.5%
- viability, T/C [16]: 8.31%
- viability, T/C (second compound 10 µM, first compound 0.00316 µM): 69.3%
- viability, T/C (second compound 10 µM, first compound 0.01 µM): 49%
- viability, T/C [17]: 31.2%
- viability, T/C [18]: 21.1%
- viability, T/C [19]: 12.8%
- viability, T/C [20]: 9.05%

Source: PubChem BioAssay AID1963420 (Molecular Pharmacology Branch, DTP, NCI, 2024)
